# Laboratory results taken from ChEMBL document CHEMBL1132687, “Synthesis and enantiopharmacology of new AMPA-kainate receptor agonists” (J Med Chem, 1999).
# Calls of active or inactive are those of the source. The calls are words filed in the database; no cut-off is given here.
# Assays:
# physchem [1] = conditions: water
# Description: The dissociation constant at omega-carboxyl or hydroxyl group in water at 20 degree Centigrade.
# Rattus norvegicus [2] = species on record: Rattus norvegicus; experiment: Electropharmacology on rat cortical slice preparation for EAA-evoked depolarizations; Depolarization evoked by the compound is partially antagonised by 5 uM of NBQX and fully antagonised by 20 uM of NBQX.; assay type: functional
# physchem [3] = conditions: water; remark: listed apart in the source
# [4] = The dissociation constant at ammonium group in water at 20 degree Centigrade; assay type: ADME; conditions: read-out: pKa3
# physchem [5] = conditions: water; remark: listed apart in the source
# Rattus norvegicus [6] = species on record: Rattus norvegicus; experiment: Electropharmacology on rat cortical slice preparation for EAA-evoked depolarizations; Depolarization evoked by the compound is antagonised by 10 uM of CPP.; assay type: functional
# Glutamate NMDA receptor = experiment: Binding affinity against N-methyl-D-aspartate glutamate receptor using [3H]-CPP as radioligand.; assay type: protein-complex assay
# CHO = experiment: Affinity at Metabotropic glutamate receptor (Glu1-alpha,Glu2,Glu4a) expressed in CHO cells; Not significant activity up to 1 mM concentration; assay type: cell-based
# [7] = biological target: Glutamate receptor ionotropic, AMPA (Rattus norvegicus, UniProt P19490+P19491+P19492+P19493)
# Description: Binding affinity against Ionotropic glutamate receptor AMPA using [3H]AMPA as radioligand.
# [8] = biological target: Glutamate receptor ionotropic, kainate; experiment: Binding affinity against Ionotropic glutamate receptor kainate using [3H]KAIN as radioligand.; assay type: protein-complex assay
# Rattus norvegicus [9] = species on record: Rattus norvegicus; experiment: Electropharmacology on rat cortical slice preparation for EAA-evoked depolarizations;Depolarization evoked by the compound is fully antagonised by 5 uM of NBQX.; assay type: functional
# Rattus norvegicus [10] = species on record: Rattus norvegicus; experiment: Electropharmacology on rat cortical slice preparation for EAA-evoked depolarizations;; assay type: functional
# Rattus norvegicus [11] = species on record: Rattus norvegicus; experiment: Electropharmacology on rat cortical slice preparation for EAA-evoked depolarizations; Depolarization evoked by the compound is fully antagonised by 5 uM of NBQX.; assay type: functional
# Rattus norvegicus [12] = species on record: Rattus norvegicus; experiment: Electropharmacology on rat cortical slice preparation for EAA-evoked depolarizations;Depolarization evoked by the compound is partially antagonised by 5 uM of NBQX and fully antagonised by 20 uM of NBQX.; assay type: functional
# [13] = The dissociation constant at ammonium group in water at 20 degree Centigrade. (evaluated by Uyeno., Y et. al.); assay type: ADME; conditions: read-out: pKa3
# [14] = The dissociation constant at omega-carboxyl or hydroxyl group iin water at 20 degree Centigrade. (evaluated by Uyeno., Y et. al.); assay type: ADME; conditions: read-out: pKa2
# [15] = The dissociation constant at alpha-carboxyl group in water at 20 degree Centigrade. (evaluated by Uyeno., Y et. al.); assay type: ADME; conditions: read-out: pKa1
# Rattus norvegicus [16] = species on record: Rattus norvegicus; experiment: Electropharmacology on rat cortical slice preparation for EAA-evoked depolarizations; Depolarization evoked by the compound is not antagonised by 5 uM of NBQX but fully antagonised by 20 uM of NBQX.; assay type: functional
smiles,measurement,setting,value
O=C(O)C1=NO[C@H]2CN[C@H](C(=O)O)[C@@H]12 (racemic) [listing 1 of 2 here],pKa,physchem [1],2.15
same,EC50,Rattus norvegicus [2],5.4 µM
same,pKa,physchem [3],< 2
same,pKa,[4],7.4
O=C1NO[C@H]2[C@@H]1CN[C@@H]2C(=O)O (racemic),pKa,physchem [5],8.3
same,EC50,Rattus norvegicus [6],1000 µM
same,pKa,physchem [1],5.1
same,IC50,Glutamate NMDA receptor,> 100 µM
same,Activity,CHO,inactive
same,IC50,[7],34.9 µM
same,pKa,physchem [3],2
same,IC50,[8],45.3 µM
O=C1NO[C@H]2CN[C@H](C(=O)O)[C@@H]12 (racemic),EC50,Rattus norvegicus [6],1000 µM
same,IC50,Glutamate NMDA receptor,> 100 µM
same,Activity,CHO,inactive
same,IC50,[7],42.6 µM
same,IC50,[8],7.9 µM
O=C(O)C1=NO[C@H]2[C@@H]1CN[C@@H]2C(=O)O (racemic) [listing 1 of 2 here],pKa,physchem [5],7.3
same,pKa,physchem [1],2.6
same,EC50,Rattus norvegicus [9],284 µM
same,pKa,physchem [3],< 2
O=C(O)C1=NO[C@H]2CN[C@H](C(=O)O)[C@@H]12 (racemic) [listing 2 of 2 here],Activity,CHO,inactive
O=C(O)C1=NO[C@H]2[C@@H]1CN[C@@H]2C(=O)O (racemic) [listing 2 of 2 here],Activity,CHO,inactive
O=C(O)C1=NO[C@H]2CN[C@H](C(=O)O)[C@@H]12 (stereo in doubt; (+)-6) [listing 1 of 2 here],IC50,[7],> 100 µM
same,EC50,Rattus norvegicus [10],> 1000 µM
same,IC50,[8],> 100 µM
O=C(O)C1=NO[C@H]2CN[C@H](C(=O)O)[C@@H]12 (stereo in doubt; (+)-6) [listing 2 of 2 here],Activity,CHO,inactive
O=C(O)C1=NO[C@H]2[C@@H]1CN[C@@H]2C(=O)O (stereo in doubt; (+)-7) [listing 1 of 2 here],EC50,Rattus norvegicus [11],251 µM
same,IC50,[7],11.2 µM
same,IC50,[8],67 µM
O=C(O)C1=NO[C@H]2[C@@H]1CN[C@@H]2C(=O)O (stereo in doubt; (+)-7) [listing 2 of 2 here],Activity,CHO,inactive
O=C(O)C1=NO[C@H]2CN[C@H](C(=O)O)[C@@H]12 (stereo in doubt; (-)-6) [listing 1 of 2 here],EC50,Rattus norvegicus [12],3.5 µM
same,IC50,[7],0.54 µM
same,IC50,[8],0.23 µM
O=C(O)C1=NO[C@H]2CN[C@H](C(=O)O)[C@@H]12 (stereo in doubt; (-)-6) [listing 2 of 2 here],Activity,CHO,inactive
O=C(O)C1=NO[C@H]2[C@@H]1CN[C@@H]2C(=O)O (stereo in doubt; (-)-7) [listing 1 of 2 here],IC50,Glutamate NMDA receptor,> 100 µM
same,IC50,[7],> 100 µM
same,EC50,Rattus norvegicus [10],> 1000 µM
same,IC50,[8],> 100 µM
O=C(O)C1=NO[C@H]2[C@@H]1CN[C@@H]2C(=O)O (stereo in doubt; (-)-7) [listing 2 of 2 here],Activity,CHO,inactive
N[C@@H](CCC(=O)O)C(=O)O [GLUTAMIC ACID],pKa,[13],9.54
same,pKa,[14],4.21
same,pKa,[15],2.39
C=C(C)[C@H]1CN[C@H](C(=O)O)[C@H]1CC(=O)O [KAINIC ACID],EC50,Rattus norvegicus [16],25 µM
CN[C@H](CC(=O)O)C(=O)O [N-METHYL-D-ASPARTIC ACID (NMDA)],EC50,Rattus norvegicus [6],11 µM
